Consider six molecules from ChEMBL document CHEMBL1127096, “Synthesis and anticonvulsant activity of the (+)- and ()-enantiomers of 1,2,3,4-tetrahydro-5-(2-phosphonoethyl)-3-isoquinolinecarboxylic acid, a competitive NMDA antagonist” (Bioorg Med Chem Lett, 1993).

Molecules are shown by their SMILES.

Data set [1] deals with Mus musculus. The data set is described as follows: Tested in vivo for anticonvulsant activity against maximal electroshock in mouse, intravenously (MES tested at 1 h). The class given is functional. For orientation: In the maximal electroshock model the usual endpoint is tonic extension of the hind limbs.
Data set [2] has as its system Mus musculus. The data set is described as follows: Tested in vivo for the ability to produce ataxia in mouse, intravenously. (ataxia tested at 30 min). The class given is functional.
Data set [3] is described as follows: Tested for the therapeutic index, which was determined as the ratio of ED50 for ataxia and ED50 to prevent seizures. Particulars: for selectivity ratio: read-out: TI.
Data set [4] can be described thus: Partition coefficient (logP). The class given is physicochemical. As to conditions: octanol/water.
A short description of data set [5]: Tested for the NMDA antagonist activity, glutamate induced LDH release in cultured neuronal cells. The class given is functional, cell-based. (LDH in the medium is a marker of cell lysis.)
Data set [6] is described as follows: Tested for the NMDA antagonist activity, glutamate induced calcium influx in cultured neuronal cells. The class given is functional, cell-based.
For the next data set, the target named is Glutamate NMDA receptor. The data set is described as follows: Tested for the inhibitory activity against NMDA receptor site as measured in a [3H]CPP binding assay of rat brain neuronal membranes.
Data set [7] has as its system Mus musculus. Kind of data set: Tested in vivo for anticonvulsant activity against maximal electroshock in mouse, intravenously. The class given is functional.

Turning to `O=C(O)[C@H]1Cc2c(CCP(=O)(O)O)cccc2CN1`, the ED50 with Mus musculus [1] came to 3.56 mg/kg; in the data set with Mus musculus [2], 6.29 mg/kg. Moreover, in data set [3], the selectivity ratio came out at 1.76.
In turn, `O=C(O)C1CN(CCCP(=O)(O)O)CCN1` (centres undefined) had a logP in data set [4] of -3.4. Besides, the ED50 in the data set on Mus musculus [1] (Mus musculus, iv, 1 h, read-out: ED50) came out at 2.35 mg/kg; in the data set on Mus musculus [2] (Mus musculus, iv, 0.5 h, read-out: ED50) it was 5.21 mg/kg. Further, the values for the IC50 in data set [5] and in data set [6] were 9 µM and 2.4 µM, respectively. The selectivity ratio in data set [3] worked out at 2.21.
The molecule `O=C(O)[C@H]1Cc2c(CCP(=O)(O)O)cccc2CN1` (racemic) gave a logP in data set [4] of 1.4. For the same molecule, the results for the ED50 in the data set on Mus musculus [1] and in the data set with Mus musculus [2] were 9.2 mg/kg and 15.84 mg/kg, respectively. Moreover, the results for the IC50 (at Glutamate NMDA receptor; in data set [5]; in data set [6]) were 0.27 µM, 8.8 µM and 5.1 µM, respectively. Further, the TI in data set [3] was 1.72.
Take `C/C(=C\C(N)C(=O)O)CP(=O)(O)O` (racemic) [CGP-37849]: the ED50 in the data set with Mus musculus [7] turned out to be 21 mg/kg.
As for `C/C(=C\C(N)C(=O)O)CP(=O)(O)O` (single isomer, unassigned; (+)) [CGP-37849], the ED50 in the data set with Mus musculus [7] is 7 mg/kg.
`C/C(=C\C(N)C(=O)O)CP(=O)(O)O` (single isomer, unassigned; (-)) [CGP-37849]: the ED50 in the data set on Mus musculus [7] is greater than 60 mg/kg.

The ED50 is the dose at which the effect has come halfway, by size or by number of responders. One may read the logP as the decadic logarithm of the partition coefficient of the neutral form, usually between octanol and water. Lower therefore signals lower lipophilicity. A word on the IC50: it is the concentration needed to halve the response being measured.
